Results reported in patent US9156783B2, “Compounds for treating proliferative disorders” (Synta Pharmaceuticals Corp., priority 2006, dated 2015).

System: inducible human Hsp70
Experiment: Hsp70 RNA induction by quantitative PCR analysis in Ramos B cells
Assay type: cell-based
Conditions: 500 nM compound, 6 hours; for % induction relative to Compound B: Compound B induction set to 100%; for fold induction at 0.5 µM: Homo sapiens, read-out: fold induction over DMSO
Procedure: The ability of the compounds of the invention to induce Hsp70 RNA induction by quantitative PCR analysis was examined. Ramos B cells were treated with 500 nM each compound for 6 hours and the RNA was isolated from the cells. Quantitative PCR was performed as described below:
Details for Quantitative PCR are as follows:
500 ng of RNA from each sample was used for cDNA synthesis using iScript cDNA Synthesis Kit (Biorad, Cat #170-8891). 1 ul of cDNA mixture was used with the iQ SYBR Green Supermix (Biorad, Cat#170-8882) to perform quantitative PCR in an iCycler machine (Biorad) using standard protocols. QPCR for each sample/time point was performed in duplicate. The following primers for inducible human Hsp70 and gapdh were used: […]
Ct values were obtained from the iCycler program and used in an equation (2^−ΔΔCT) for determining the amount of target relative to gapdh expression. This compares the relative expression of Hsp70 to the corresponding levels of gapdh in each sample. Duplicate wells were averaged. The amount of N-Malonyl-bis(N′-methyl-N′thiobenzoylhydrazide) (Compound B) induction of Hsp70 was set to 100% and the percent of induction of Hsp70 by the compounds of the invention was determined relative to 100%.

SMILES	% induction relative to Compound B	fold induction at 0.5 µM
CNN=C(C(=O)NN(C)C(=S)c1ccccc1)C(=O)NN(C)C(=S)c1ccccc1 [Compound 71, N′1,N′3-dimethyl-2-(2-methylhydrazono)-N′1,N′3-di(phenylcarbonothioyl)-malonohydrazide]	17.59%	46.9
COP(=O)(CP(=O)(NN(C)C(=O)c1ccccc1)OC)NN(C)C(=O)c1ccccc1 (stereo not shown) [Compound 33]	0.14%	0.35
COP(=O)(CP(=O)(NN(C)C(=S)c1ccccc1)OC)NN(C)C(=S)c1ccccc1 (stereo not shown) [Compound 30, Dimethyl N,N′-methylenebis(N′-methyl-N′(phenylcarbonothioyl)-phosphonohydrazidate)]	0.34%	0.85
CN(NC(=O)CC(=O)NN(C)/C(=N/S(C)(=O)=O)c1ccccc1)/C(=N/S(C)(=O)=O)c1ccccc1 [Compound 67, N′1,N′3-bis(methanesulfonimino(phenyl)methyl)-N′1,N′3-dimethylmalonohydrazide]	0.75%	1.87
CN(NC(=O)CS(=O)(=O)NN(C)C(=S)c1ccccc1)C(=S)c1ccccc1 [Compound 68, N′-Methyl-2-(2-methyl-2-(phenylcarbonothioyl)hydrazinyl)-2-oxo-N′-(phenylcarbonothioyl)ethanesulfonohydrazide]	11.78%	29.3
